Values after ≈ are worked out from the molar mass of the structure shown. Values joined by “and” are separate entries in the source; they are usually repeats but may differ in a detail not shown here. Equal values may be shown once. Read-outs that look alike come from different tables or passages of the source. Marks after values point to notes of the source that are not given here.
Legend:
[1] = system: luciferase expressing P. berghei liver stage parasites; assay: Liver stage activity by in vivo imaging; details: mice, PO dosing at 40 mg/kg/d×3 days
Method: Efficacy was measured by number of mice with delayed parasitemia and mice that were malaria free at day 31. Antimalarial liver stage activity was assessed in mice infected with luciferase expressing P. berghei parasites using an in vivo imaging system.

[2] = system: P. berghei ANKA sporozoites; assay: Causal prophylactic P. berghei sporozoite mouse model; type: in vivo
Method: EXAMPLE. CEM-101 activity as prophylactic. Mice inoculated IV with 0.1 ml, 100,000 P. berghei ANKA sporozoites from mosquitoes. Drug administered Day −1, 0 and 1, Once daily for 3 days.

[3] = system: replicating M. tuberculosis; assay: Aero RLU (Relative Light Units under aerobic conditions), replicating culture; type: cell-based; details: two experiments
M. avium complex = assay: Broth dilution MIC versus M. avium complex isolates; type: cell-based, Mycobacterium avium; details: Mycobacterium avium, read-out: MIC
[4] = system: P. falciparum lines Dd2 and 7G8 and azithromycin-resistant lines; assay: Fidock lab 96 hours assay on P. falciparum lines; type: cell-based
Description: EXAMPLE. CEM101 is active when tested against Azi resistant strain (Fidock).

[5] = system: replicating M. tuberculosis; assay: Microplate Alamar Blue Assay (MABA), replicating culture; type: cell-based; details: two experiments
M. avium LPR ATCC 49601 = assay: Murine model of M. avium infection, CFU in spleens and lungs; type: in vivo; details: mice; for reduction in growth of MAC LPR in the spleens and lungs compared to the late controls: P<0.05
[6] = system: non-replicating M. tuberculosis; assay: Low Oxygen Recovery Assay (LORA), non-replicating culture; type: cell-based; details: non-replicating culture (anaerobic); two experiments
M. avium = M. avium in vitro activity summary (MIC90, MBC); type: cell-based
[7] = system: clinical XDR strains of M. tuberculosis; assay: microbe, parasite or virus in culture; type: cell-based; details: Mycobacterium tuberculosis
[8] = type: in vitro ADME; details: 24 h
Method: EXAMPLE. Intracellular activity of CEM-101. […] After 24 hours, the intracellular concentration of CEM-101 was more than 2-fold higher than any of azithromycin, clarithromycin, and telithromycin, in decreasing order of ability for intracellular accumulation. CEM-101 intracellular accumulation was dose dependent.

P. falciparum NF54 = assay: In vitro P. falciparum 120 hour assay (96+24); type: cell-based; details: Plasmodium falciparum, NF54
Method: EXAMPLE. In vitro and in vivo activity against different species of Plasmodium parasites. CEM-101 was tested against intra-erythrocytic forms of P. falciparum derived from asynchronous cultures of the strain […]. Parasite growth over 120 h was measured by the incorporation of radiolabelled [^3H]hypoxanthine (in hypoxanthine free culture medium) added after 96 h of drug incubation and 24 h prior to the termination of the test. CEM-101 was followed for 120 h. CEM-101 has delayed activity when compared to other agents.
In vitro P. falciparum data for CEM-101 in the 120 h Assay (96+24)

P. berghei blood stages = assay: Blood stage treatment of P. berghei-infected mice, 3 day PO or SC dosing; type: in vivo; details: blood stage infections
[9] = Systemic toxicity in mice with SC or PO dosing; type: in vivo; details: SC or PO dosing as high as 160 mg/kg/d×3 days
Method: For blood stage infections, the minimum curative SC dose was 40 mg/kg/d×3 days, while 80 mg/kg/d×3 was the minimum active dose for PO route. In the P. berghei causal mouse model, CEM-101 was curative at 40 mg/kg/d×3 days with SC or PO dosing.

## CC[C@H]1OC(=O)[C@@](C)(F)C(=O)[C@H](C)[C@@H](O[C@@H]2O[C@H](C)C[C@H](N(C)C)[C@H]2O)[C@](C)(OC)C[C@@H](C)C(=O)[C@H](C)[C@H]2N(CCCCn3cc(-c4cccc(N)c4)nn3)C(=O)O[C@]12C [CEM-101, solithromycin]
[1]
  antimalarial activity against liver stage parasites by in vivo imaging: No demonstrable antimalarial activity
[2]; 20 mg/kg/d×3 days
  mice remaining parasite free: 3/5
[2]; 40 mg/kg/d×3 days with SC or PO dosing
  outcome in the P. berghei causal mouse model: curative
[2]; causal mouse malaria models, PO dosing at 40 mg/kg/d×3 days
  prophylactic activity: 100%
[2]; mice dosed as low as 40 mg/kg/d×3 days
  blood stage infection after prophylactic dosing: no blood stage infection was detected
[2]; mice, PO, dose 80, once daily Day -1, 0 and 1, (3 mice)
  Activity: Complete curative
[2]; mice, PO, dose 120, once daily Day -1, 0 and 1, (3 mice)
  Activity: Complete curative
[2]; mice, PO, dose 160, once daily Day -1, 0 and 1
  Activity: Complete curative
[2]; mice, SC, dose 40, once daily Day -1, 0 and 1
  Activity: Complete curative
[2]; mice, SC, dose 80, once daily Day -1, 0 and 1
  Activity: Complete curative
[2]; mice, SC, dose 120, once daily Day -1, 0 and 1
  Activity: Complete curative
[2]; mice, SC, dose 160, once daily Day -1, 0 and 1
  Activity: Complete curative
[2]; mice, causal prophylactic model
  minimum active dose: 20 mg/kg/d×3 days
[3]
  Aero RLU: 7.19 µM and 6.95 µM
M. avium complex; isolate MAC 101, clarithromycin susceptible
  MIC: 0.25 µg/mL (≈ 0.296 µM)
M. avium complex; isolate MAC 103, clarithromycin resistant
  MIC: 8 µg/mL (≈ 9.47 µM)
M. avium complex; isolate MAC 108, clarithromycin resistant
  MIC: 8 µg/mL (≈ 9.47 µM)
M. avium complex; isolate MAC 110, clarithromycin resistant
  MIC: 8 µg/mL (≈ 9.47 µM)
M. avium complex; isolate MAC 216, clarithromycin resistant
  MIC: 8 µg/mL (≈ 9.47 µM)
M. avium complex; isolate MAC 224, clarithromycin resistant
  MIC: 8 µg/mL (≈ 9.47 µM)
M. avium complex; isolate MAC 309, clarithromycin resistant
  MIC: 8 µg/mL (≈ 9.47 µM)
M. avium complex; isolate MAC 320, clarithromycin resistant
  MIC: 8 µg/mL (≈ 9.47 µM)
M. avium complex; isolate MAC 621, clarithromycin resistant
  MIC: 16 µg/mL (≈ 18.9 µM)
M. avium complex; isolate MAC 623, clarithromycin resistant
  MIC: 16 µg/mL (≈ 18.9 µM)
M. avium complex; isolate MAC 625, clarithromycin resistant
  MIC: 8 µg/mL (≈ 9.47 µM)
M. avium complex; isolate MAC 643, clarithromycin resistant
  MIC: 8 µg/mL (≈ 9.47 µM)
M. avium complex; isolate MAC 1408, clarithromycin susceptible
  MIC: 0.25 µg/mL (≈ 0.296 µM)
M. avium complex; isolate MAC 3404.4, clarithromycin susceptible
  MIC: 0.125 µg/mL (≈ 0.148 µM)
M. avium complex; isolate MAC 9141, clarithromycin susceptible
  MIC: 1 µg/mL (≈ 1.18 µM)
M. avium complex; isolate MAC FAR, clarithromycin susceptible
  MIC: 0.125 µg/mL (≈ 0.148 µM)
M. avium complex; isolate MAC GRL, clarithromycin susceptible
  MIC: 8 µg/mL (≈ 9.47 µM)
M. avium complex; isolate MAC KAL, clarithromycin susceptible
  MIC: 16 µg/mL (≈ 18.9 µM)
M. avium complex; isolate MAC KZL, clarithromycin susceptible
  MIC: 8 µg/mL (≈ 9.47 µM)
M. avium complex; isolate MAC LPR (control strain)
  MIC: 8 µg/mL (≈ 9.47 µM)
M. avium complex; isolate MAC Pry, clarithromycin resistant
  MIC: 8 µg/mL (≈ 9.47 µM)
M. avium complex; isolate MAC SMT, clarithromycin susceptible
  MIC: 0.125 µg/mL (≈ 0.148 µM)
M. avium complex; isolate MAC TEL, clarithromycin susceptible
  MIC: 8 µg/mL (≈ 9.47 µM)
M. avium complex; isolate MAC TRY, clarithromycin susceptible
  MIC: 8 µg/mL (≈ 9.47 µM)
[4]; Plasmodium falciparum, 96 h, line 7G8 (multidrug resistant), 96 hours, read-out: Mean IC50
  IC50: 18.5 nM
[4]; Plasmodium falciparum, 96 h, line AZR 7G8-R1, 96 hours, read-out: Mean IC50
  IC50: 80.2 nM
[4]; Plasmodium falciparum, 96 h, line AZR Dd2-R2, 96 hours, runs 1-3, read-out: IC50
  IC50: 73.2 nM
[4]; Plasmodium falciparum, 96 h, line AZR Dd2-R2, 96 hours, read-out: Mean IC50
  IC50: 69.1 nM
[4]; Plasmodium falciparum, 96 h, line Dd2 (multidrug resistant), 96 hours, read-out: Mean IC50
  IC50: 38.6 nM
[4]; line AZR Dd2-R2, 96 hours, runs 1-3, read-out: IC50
  IC50: 64.5 nM and 69.7 nM
[5]; Mycobacterium tuberculosis
  MIC: 9.23 µM (≈ 7.8 µg/mL)
[5]
  MIC: 9.17 µM (≈ 7.75 µg/mL)
M. avium LPR ATCC 49601; 25 mg/kg orally 5 days/week for 4 weeks, P>0.05
  reduction in growth of MAC LPR in the spleens and lungs compared to the late controls, significant or not: not
M. avium LPR ATCC 49601; 50 mg/kg orally 5 days/week for 4 weeks
  reduction in growth of MAC LPR in the spleens and lungs compared to the late controls: significant
M. avium LPR ATCC 49601; 100 mg/kg orally 5 days/week for 4 weeks
  reduction in growth of MAC LPR in the spleens and lungs compared to the late controls: significant
M. avium LPR ATCC 49601; 200 mg/kg orally 5 days/week for 4 weeks
  reduction in growth of MAC LPR in the spleens and lungs compared to the late controls: significant
M. avium LPR ATCC 49601; 200 mg/kg, difference not statistically significant (P>0.05)
  reduction in CFU of MAC LPR in spleens and lungs compared to the CLA 200 mg/kg group: greater
[6]
  LORA: 10.43 µM and 7.55 µM
M. avium; Mycobacterium avium, all strains tested, read-out: MBC
  MBC: 2 µg/mL (≈ 2.37 µM)
M. avium; Mycobacterium avium, susceptible phenotype, N=24, read-out: MIC
  MIC: 1 µg/mL (≈ 1.18 µM)
M. avium; N=30
  MBC (range): 2 (2) μg/mL
  MIC90 (range): 1 (1) μg/mL
M. avium; resistant phenotype, MBCs calculated for 4 of the resistant strains
  MBC: 2^a μg/mL
M. avium; resistant phenotype, N=6
  MIC: 1 µg/mL (≈ 1.18 µM)
M. avium; susceptible phenotype, N=24
  MBC: 2 µg/mL (≈ 2.37 µM)
[7]; 168 h, strain OB005, 1 week
  MIC: 3.12 µg/mL (≈ 3.7 µM)
[7]; 168 h, strain OB031, 1 week
  MIC: 0.049 µg/mL (≈ 0.058 µM)
[7]; 168 h, strain OB076a, 1 week
  MIC: 0.049 µg/mL (≈ 0.058 µM)
[7]; 168 h, strain OB076b, 1 week
  MIC: 0.049 µg/mL (≈ 0.058 µM)
[7]; 168 h, strain OB082, 1 week
  MIC: 0.049 µg/mL (≈ 0.058 µM)
[7]; 336 h, strain OB005, 2 weeks
  MIC: 12.5 µg/mL (≈ 14.8 µM)
[7]; 336 h, strain OB019, 2 weeks
  MIC: 1.56 µg/mL (≈ 1.85 µM)
[7]; 336 h, strain OB031, 2 weeks
  MIC: 0.78 to 1.56 µg/mL (≈ 0.923 to 1.85 µM)
[7]; 336 h, strain OB062, 2 weeks
  MIC: 0.39 to 0.78 µg/mL (≈ 0.462 to 0.923 µM)
[7]; 336 h, strain OB076a, 2 weeks
  MIC: 0.098 µg/mL (≈ 0.116 µM)
[7]; 336 h, strain OB076b, 2 weeks
  MIC: 0.049 µg/mL (≈ 0.058 µM)
[7]; 336 h, strain OB081, 2 weeks
  MIC: 12.5 µg/mL (≈ 14.8 µM)
[7]; 336 h, strain OB082, 2 weeks
  MIC: 0.098 µg/mL (≈ 0.116 µM)
[7]; strain OB031, after a week (as the cell number increased)
  MIC: 0.78 to 1.56 µg/mL (≈ 0.923 to 1.85 µM)
[7]; strain OB031, initially
  MIC: 0.049 µg/mL (≈ 0.058 µM)
[8]
  intracellular concentration relative to azithromycin, clarithromycin and telithromycin: more than 2 fold
P. falciparum NF54; 120 h assay (96+24), read-out: IC50 NF54
  IC50: 0.0024 µg/mL (≈ 0.00284 µM)
P. falciparum NF54; 120 hour assay (96+24), read-out: IC50 NF54 Test 1
  IC50: < 0.156 µg/mL
P. falciparum NF54; 120 hour assay (96+24), read-out: IC50 NF54 Test 2
  IC50: < 0.015 µg/mL
P. falciparum NF54; 120 hour assay (96+24), read-out: IC50 NF54 Test 3
  IC50: 0.0024 µg/mL (≈ 0.00284 µM)
P. berghei blood stages; PO
  minimum active dose for PO route: 80 mg/kg/d×3
P. berghei blood stages; SC
  minimum curative SC dose: 40 mg/kg/d×3 days
[9]
  systemic toxicity: No systemic toxicity

Source: US9480679B2, “Methods for treating malaria, tuberculosis and MAC diseases” (priority 2009, dated 2016)
